Holding throughout (format): in vivo, mice (C57BL/6J)
Series [1] is described as follows: Biodistribution of caffeic acid and ferulic acid after A. borbonica extract (UPLC-MS). The note with it: for concentration at 24 h: C57BL/6J, mouse, oral, 25 mg/kg; for Concentration in urine: urine collected overnight. The method, then:
Polyphenolic extract from A. borbonica was prepared by dissolving 1 g of crushed leaves in 25 mL of an aqueous acetonic solution (70%, v/v). After incubation at 4 °C for 90 min, the mixture was centrifuged at 3500× g […] at 4 °C for 20 min and polyphenol-rich supernatant was collected and stored at −80 °C until analysis. Identification of polyphenols was carried out by ultra-high-performance liquid chromatography (UHPLC) coupled with diode array detection and a HESI-Orbitrap mass spectrometer (Q Exactive Plus, Thermo Fisher). A 10 µL sample volume was injected using an UHPLC system equipped with a Thermo Fisher Ultimate 3000 series WPS-3000 RS autosampler and then separated on a PFP column (2.6 μm, 100 mm × 2.1 mm, Phenomenex, Torrance, CA, USA). The column was eluted with a gradient mixture of 0.1% formic acid in water (A) and 0.1% formic acid in acetonitrile (B) at the flow rate of 0.450 mL/min, with 5% B at 0.00 to 0.1 min, 35% B at 0.1 to 7.1 min, 95% B at 7.2 to 7.9 min and 5% B at 8.0 to 10 min. The column temperature was held at 30 °C and the detection wavelengths were set to 280 and 310 nm.
For mass spectrometer conditions, a Heated Electrospray Ionization source II (HESI II) was used. Nitrogen was used as drying gas. The mass spectrometric conditions were optimized as follows: spray voltage = 2.8 kV, capillary temperature = 350 °C, sheath gas flow rate = 60 units, aux gas flow rate = 20 units and S lens RF level = 50. Mass spectra were registered in full scan mode from m/z 100 to 1500 in negative ion mode at a resolving power of 70,000 FWHM at m/z 400. The automatic gain control (AGC) was set at 1e6. The MS/MS spectra were obtained by applying a relatively higher energy collisional dissociation (HCD) energy of 25%.
For biodistribution study, one day before sacrifice animals were placed in metabolic cages to collect urine overnight. CA and its metabolites were measured by UPLC-MS/MS in liver and kidney tissues and urine.

The nature of series [2]: Plasma and kidney pharmacokinetics after a single oral dose of CA in UUO mice. The note with it: single oral dose of CA 25 mg/kg, 3 days-UUO mice; for Cmax: n = 3/time, read-out: Cmax (peak plasma concentration). How it is done: For pharmacokinetics study, the animals were submitted to UUO and 3 days later they were fasted overnight and then treated with a single dose of CA (25 mg/kg) or vehicle (n = 3/group). Blood samples (90 µL) were collected at time 0 (before treatment), 30 min, 60 min, 180 min and 360 min post-treatment. CA concentrations were measured by UPLC-HESI-Q-orbitrap (Q Exactive Plus).
To this end, three days after UUO, mice were administrated by oral route a unique dose of CA (25 mg/kg) and then were sacrificed at 30, 60, 180 and 360 min.

A short description of series [3]: DESI-HR/MS imaging of obstructed kidney. The note with it: 1 h post oral administration of CA 25 mg/kg, UUO mice.
Description: The 2D automated Omni Spray Kidney tissues were flash-frozen in nitrogen and stored at −80 °C before DESI-HR/MS imaging. For DESI-MS imaging and histology, 12 μm thickness kidney sections were collected and mounted on SuperFrost™ Plus glass slides.
The 2D automated Omni Spray ion source from Prosolia Inc. (Indianapolis, IN, USA) coupled to a Q-Exactive™ Plus mass spectrometer (Thermo Fisher Scientific, Bremen, Germany) was used to perform the mass spectrometry imaging experiment. A solution of methanol with 0.1% formic acid (HPLC-MS grade, Carlo Erba) was used as the extraction and ionization spray solvent, delivered by a syringe pump at a flow rate of 5 μL/min. All imaging experiments were carried out with the following experimental conditions including source parameters: 2.8 kV capillary voltage, 250 °C capillary temperature, 60% S-lens RF level and 86 psi nitrogen nebulizing gas pressure, and including geometrical parameters: ∼1 mm spray tip-to-surface distance and a spray incident angle of 60°. Mass spectra were registered in full scan mode with the mass spectrometer operating in negative mode. Survey full scan mass spectra were acquired in the 50 to 500 m/z range at resolving power 70,000 (at m/z 400) with an automatic gain control (AGC) target of 3^6 and maximum injection time of 200 ms. […]
Series [4] deals with protein carbonyl in obstructed kidney. Description: Curative treatment in UUO: protein carbonylation (carbonyl ELISA). The note with it: curative: 25 mg/kg, 5 days; vs UUO + vehicle. The method, then:
The protein carbonylation was determined as described previously by the carbonyl ELISA assay based on the recognition of protein-bound DNPH in carbonylated proteins with an anti-DNP antibody.

The test system of series [5] is mRNA of inflammatory, fibrotic and antioxidant genes in obstructed kidney. Description: Curative treatment in UUO: RT-qPCR of obstructed kidney. The settings on record: curative: 25 mg/kg daily gavage from day 3 after UUO for 5 days. The method, then:
The unilateral ureteral ligation was performed as previously described. Briefly, under oxygen-isoflurane anesthesia and through a longitudinal, left abdominal incision, the ureter was exposed and ligated with a 6/0 nylon thread at the uretero-pelvic junction. In sham operations, the ureter was exposed but not ligated and repositioned. To reduce pain Buprenorphine (0.01 mg/kg) (Buprecare […], France) was injected i.p before surgery and 12 h later. […] A. borbonica polyphenol extract (25 mg/kg) or CA (25 mg/kg) were resuspended in distilled water just before gavage. The control group received only the vehicle (distilled water). At the end of the different protocols, mice were sacrificed and the kidneys were removed, and a transverse section was fixed in Carnoy's solution for 24 h and subsequently embedded in paraffin for immuno-histological analysis. Several pieces of renal cortex were snap-frozen in liquid nitrogen and stored at -80 °C for mRNA, enzyme activities and MS/MS analysis. Total RNA was isolated from mouse kidneys with TRIzol^TM reagent (Invitrogen). […] The quantitative real-time polymerase chain reaction was performed in a 96 well plate using SYBR green^TM master mix (Eurogentec). Analysis of GAPDH was performed to normalize gene expression and the relative mRNA fold changes between groups were calculated using the 2^-^ΔΔ^Ct method.

For series [6], the system named is unilateral ureteral obstruction (UUO) mouse model. As to the kind of experiment: Curative treatment in UUO-induced tubulointerstitial fibrosis: immunohistochemistry and Sirius red histology. The settings on record: curative: 25 mg/kg daily gavage from day 3 after UUO for 5 days; vs UUO + vehicle; n = 7. How it is done: The unilateral ureteral ligation was performed as previously described. Briefly, under oxygen-isoflurane anesthesia and through a longitudinal, left abdominal incision, the ureter was exposed and ligated with a 6/0 nylon thread at the uretero-pelvic junction. In sham operations, the ureter was exposed but not ligated and repositioned. To reduce pain Buprenorphine (0.01 mg/kg) (Buprecare […], France) was injected i.p before surgery and 12 h later. […] A. borbonica polyphenol extract (25 mg/kg) or CA (25 mg/kg) were resuspended in distilled water just before gavage. The control group received only the vehicle (distilled water). At the end of the different protocols, mice were sacrificed and the kidneys were removed, and a transverse section was fixed in Carnoy's solution for 24 h and subsequently embedded in paraffin for immuno-histological analysis. Several pieces of renal cortex were snap-frozen in liquid nitrogen and stored at -80 °C for mRNA, enzyme activities and MS/MS analysis. Kidneys were fixed in Carnoy's solution, dehydrated and embedded in paraffin. From kidney sections, routine histology and immunohistological staining and analysis were performed as previously described. Three to four μm thickness sections were cut and used for routine staining (hematoxylin-eosin and Sirius red staining) and immunohistochemistry. […] For immunohistochemistry, mouse renal tissue was first de-waxed in toluene and rehydrated through a series of graded ethanol washes before incubation with 3% hydrogen peroxide for 10 min at room temperature to block endogenous peroxidase activity. […] The sections were subsequently stained with the Dako Envision system ([…] (primary antibodies from mouse) and K4002 (primary antibodies from rabbit)) according to manufacturer's instruction. Sections were finally counterstained with hematoxylin. Negative controls for the immunohistochemical procedures included substitution of the primary antibody with nonimmune sera at a similar immunoglobin concentration. […]

Series [7] deals with Mn-SOD, Cu/Zn-SOD, GPX, CAT activities in obstructed kidney. As to the kind of experiment: Curative treatment in UUO: antioxidant enzyme activities in kidney tissue. The settings on record: curative: 25 mg/kg, 5 days; vs UUO + vehicle. The method, then: After centrifugation (5000× g[…], for 10 min), the supernatant was used for protein quantification and enzymatic assays. The total protein level of lysate was quantified by the bicinchoninic acid assay (BCA). SOD activity was assayed by monitoring the rate of acetylated cytochrome c reduction by superoxide radicals generated by the xanthine/xanthine oxidase system. Measurements were performed in a reagent buffer (xanthine oxidase, xanthine (0.5 mM), cytochrome c (0.2 mM), KH2PO4 (50 mM), EDTA (2 mM), pH 7.8) at 25 °C. The specific MnSOD activities were determined in the same conditions after incubation of samples with NaCN (1 mM) which inhibits Cu/ZnSOD activities. Assays were monitored by spectrophotometry at 560 nm. SOD activities were calculated using a calibration standard curve of SOD (up to 6 unit/mg). Total SOD, MnSOD and resulting Cu/ZnSOD activities were expressed as international catalytic units per mg of proteins. The total activity of glutathione peroxidase (GPX) was determined with cumene hydroperoxide as substrate. The rate of glutathione oxidized by cumene hydroperoxide (6.5 mM) was evaluated by the decrease in NADPH (0.12 mM in Tris buffer) at 340 nm in the presence of NaCN (10 mM), reduced glutathione (0.25 mM) and glutathione reductase (1 U/mL) in Tris buffer (50 mM, pH 8). GPX activity was expressed as international units per gram of proteins. The catalase (CAT) activity assay was carried out on 40 µg of protein lysate in 25 mM Tris–HCl (pH 7.5). Blanks were measured at 240 nm just before adding 80 µL of H2O2 (10 mM final) to start the reaction. Catalase activity was determined by measuring the absorbance at 240 nm and was calculated using a calibration standard curve of an increasing amount of catalase between 12.5 and 125 unit/mL. Catalase activity was expressed as international catalytic units per mg of proteins.

The mark [8] stands for this setting: liver, read-out: Concentration in liver.
Where [9] appears, read: UUO mice after ingestion of 25 mg/kg A. borbonica extract (gavage), n = 7, mean ± SD.
The mark [10] stands for this setting: C57BL/6J, mouse, contralateral kidney, read-out: AUC (0-360) in contralateral kidney (converted).
Where [11] appears, read: C57BL/6J, mouse, contralateral kidney, read-out: concentration in contralateral kidney one hour after CA administration.
Where [12] appears, read: C57BL/6J, mouse, obstructed kidney, read-out: AUC (0-360) in obstructed kidney (converted).
The mark [13] stands for this setting: C57BL/6J, mouse, obstructed kidney, read-out: concentration in obstructed kidney one hour after CA administration.
Setting [14] is: C57BL/6J, mouse, plasma, 0 to 360 min, read-out: AUC (0-360) in plasma (converted).

Where two headings read alike, the source gives them in different places.

Turning to `COc1cc(/C=C/C(=O)O)ccc1O` [Ferulic acid, ferulic acid], in series [1] (setting [8]), the concentration at 24 h worked out at 0.426 ± 0.099 µM. For the same molecule, the Concentration in urine in series [1] (setting [9]) worked out at 38.002 ± 5.021 µM; in series [1] (UUO mice after ingestion of 25 mg/kg A. borbonica extract (gavage), n = 7, mean ± SD, listed as FA) it was 38.002 ± 5.021 µM. Further, the AUC(0-t) in series [2] (setting [10]) was 1.64 µM·h; in series [2] (setting [12]) it was 17.9 µM·h; in series [2] (setting [14]), 77.5 µM·h. Also, the concentration at 1 h in series [2] (setting [11]) is 0.4 ± 0.1 µM; in series [2] (setting [13]), 4.5 ± 0.8 µM. Further, the Cmax in series [2] (C57BL/6J, mouse, plasma) was determined as 68.3 ± 8.3 µM. For the same molecule, the tmax entry in series [2] (plasma) is “same tmax as CA”. The “spatial distribution in obstructed kidney (DESI-HR/MS imaging)” value in series [3] was “in the renal cortex”.
For `O=C(O)/C=C/c1ccc(O)c(O)c1` [Caffeic acid, caffeic acid], the “UUO-induced increase in protein carbonyl level in obstructed kidney” value in series [4] is recorded as “slight decrease in carbonyl level which did not reach statistical significance”. Besides, the concentration at 24 h in series [1] (setting [8]) stood at 0.037 ± 0.001 µM; in series [1] (obstructed kidney, read-out: Concentration in obstructed kidney), 0.144 ± 0.013 µM. The “Concentration in obstructed kidney” value in series [1] (UUO mice after ingestion of 25 mg/kg A. borbonica extract (gavage), 24 h after administration, n = 7, mean ± SD) worked out at 0.144 ± 0.013 µM. Moreover, the Concentration in urine in series [1] (setting [9]) stood at 96.599 ± 19.704 µM; in series [1] (UUO mice after ingestion of 25 mg/kg A. borbonica extract (gavage), n = 7, mean ± SD, listed as CA), 96.599 ± 19.704 µM. Also, the “Nrf2 mRNA expression” value in series [5] was “significant increase”. Also, the “UUO-induced mRNA expression of inflammatory and fibrotic genes (Tgf-β, Tnf-α, Nf-κB, Mcp1, Fn, Col I, Col III)” value in series [5] (vs UUO + vehicle) is listed as “downregulated”. For the same molecule, the AUC(0-t) in series [2] (setting [10]) is 1.67 µM·h; in series [2] (setting [12]), 14.7 µM·h; in series [2] (setting [14]), 82.7 µM·h. Also, the concentration at 1 h came to 0.3 ± 0.1 µM in series [2] (setting [11]) and 5.3 ± 1.1 µM in series [2] (setting [13]). Besides, the tmax in series [2] (C57BL/6J, mouse, plasma, po, 25 mg/kg, plasma, read-out: tmax) was at most 30 min; in series [2] (plasma), 30 min. Also, the bioavailability in series [2] (C57BL/6J, mouse, plasma, read-out: Bioavailability F) stood at 0.4%. The Cmax in series [2] (C57BL/6J, mouse, plasma) was found to be 50.5 µM. The “extracellular matrix accumulation / renal tubulointerstitial fibrosis (Sirius red staining)” value in series [6] is on record as “significant protective effect”. The “macrophage infiltration (F4/80 immunostaining)” value in series [6] is recorded as “significant protective effect”. Further, the “myofibroblast appearance/accumulation (α-SMA immunostaining)” value in series [6] is “significant protective effect”. The “CAT enzyme activity in obstructed kidney” value in series [7] was “significantly increased”. Besides, in series [7], the “Cu/Zn-SOD enzyme activity in obstructed kidney” value is recorded as “significantly increased”. In addition, the “GPX enzyme activity in obstructed kidney” value in series [7] is given as “not significantly different”.

(Values after PMC8065974 (Biomedicines, 2021).)
